We go through 13 compounds from PubChem BioAssay (NCI).

Among the test systems are 786-0 renal; ACHN renal; CAKI-1 renal; CCRF-CEM leukemia; HCT-116 colon; NCI-H522 lung; RPMI-8226 leukemia; RXF 393 renal; SW-620 colon; U251 CNS.
Holding throughout (experiment): NCI anticancer screen, dose series, 48 h

Values joined by “and” are separate entries in the source; they are usually repeats but may differ in a detail not shown here. Equal values may be shown once.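 Method: 48-hour compound exposure of cells in 96-well plates, five concentrations, linear interpolation of endpoints. Here, GI50 denotes the concentration required for 50% inhibition of growth. TGI marks complete inhibition of growth.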

`COc1cc(-c2cn(-c3ccc(Cl)cc3)c(C)c2C(=O)C(F)(F)F)cc(OC)c1OC`: the GI50 with 786-0 renal was over 100 µM; in the test on ACHN renal, over 100 µM; in the test on CAKI-1 renal, over 100 µM; in the test on CCRF-CEM leukemia, 16.1 µM; in the test with HCT-116 colon, 7.03 µM; in the test on NCI-H522 lung it was 37 µM. Further, the GI50 was 5.3 µM with RPMI-8226 leukemia, over 100 µM in the test with RXF 393 renal, over 100 µM with SW-620 colon and over 100 µM with U251 CNS. Also, the TGI with 786-0 renal, in the test on ACHN renal, in the test on CAKI-1 renal, with CCRF-CEM leukemia, with HCT-116 colon and in the test on NCI-H522 lung was over 100 µM throughout. For the same compound, the TGI with RPMI-8226 leukemia, in the test on RXF 393 renal, in the test on SW-620 colon and in the test on U251 CNS was over 100 µM throughout.
On to `CO/N=C(\C)c1ccc(Nc2cc(-c3ccccc3)nc3c(O)cccc23)cc1`, for which the GI50 in the test with 786-0 renal was 16.3 µM; in the test with ACHN renal it was 17.8 µM; in the test with CAKI-1 renal, 19.4 µM; with CCRF-CEM leukemia it was 6.64 µM; with HCT-116 colon, 22.2 µM; in the test with NCI-H522 lung, 20.6 µM. Also, the GI50 in the test with RPMI-8226 leukemia is 15.8 µM; in the test on RXF 393 renal, 14.2 µM; with SW-620 colon, 13.6 µM; in the test on U251 CNS it was 13.3 µM. The TGI in the test on 786-0 renal was 35.2 µM; in the test on ACHN renal, 34 µM; in the test with CAKI-1 renal, 35.5 µM; with CCRF-CEM leukemia, 22.6 µM; in the test on HCT-116 colon, 52.7 µM; with NCI-H522 lung, 62.1 µM. The TGI with RPMI-8226 leukemia stood at 37 µM; in the test on RXF 393 renal, 30 µM; with SW-620 colon it was 40 µM; in the test on U251 CNS it was 27.2 µM.
For `CN(C)CCCN1CCc2c([nH]c3ccccc23)C1c1cccnc1` (centres undefined), the TGI in the test with 786-0 renal, in the test with ACHN renal, with CAKI-1 renal, in the test on CCRF-CEM leukemia, in the test on HCT-116 colon and in the test with NCI-H522 lung was over 100 µM throughout. Also, the TGI with RPMI-8226 leukemia, in the test with RXF 393 renal, with SW-620 colon and in the test with U251 CNS was over 100 µM in each case.
In the case of `CC1C(=O)C(C)C(c2ccccc2)N(N=O)C1c1ccccc1` (centres undefined), the TGI in the test with 786-0 renal was 359 µM; in the test on ACHN renal, 341 µM; in the test on CAKI-1 renal, over 700 µM; in the test with CCRF-CEM leukemia it was over 1000 µM; in the test on HCT-116 colon, 354 µM; with NCI-H522 lung, over 601 µM. Moreover, the TGI was over 1000 µM in the test with RPMI-8226 leukemia; > 68.4 µM and 171 µM in the test with RXF 393 renal; over 1000 µM in the test on SW-620 colon; > 92.4 µM and 397 µM with U251 CNS. In addition, the GI50 with NCI-H522 lung was over 385 µM; in the test with RXF 393 renal, 49.6 µM; in the test on SW-620 colon, over 1000 µM; in the test with U251 CNS, 131 µM.
With `CCCCCCCCCCCCCC(=O)CBr`, the TGI in the test on 786-0 renal is 11.3 µM; with ACHN renal it was 30.1 µM; with CAKI-1 renal, 3.13 µM; with CCRF-CEM leukemia it was 2.6 µM; in the test with HCT-116 colon, 17 µM; in the test on NCI-H522 lung, 3.85 µM. For the same compound, the TGI in the test on RPMI-8226 leukemia worked out at 4.24 µM; in the test on RXF 393 renal, 10.5 µM; with SW-620 colon it was 30.2 µM; with U251 CNS, 28.8 µM.
Turning to `Cc1cc(C(C#N)c2ccc(Cl)cc2)c(Cl)cc1NC(=O)c1cc(I)cc(I)c1O` (centres undefined), the GI50 in the test with 786-0 renal is 12.6 µM and 16.6 µM; in the test with ACHN renal, 15.5 µM and 17.2 µM; in the test on CAKI-1 renal it was 10.2 µM and 14.3 µM; in the test on CCRF-CEM leukemia, 3.87 µM and 17.8 µM; with HCT-116 colon, 17.7 µM and 14.5 µM; in the test on NCI-H522 lung it was 3.48 µM and 17.8 µM. Also, the GI50 was 3.15 µM and 11.1 µM in the test with RPMI-8226 leukemia; 10.8 µM and 5.95 µM in the test on RXF 393 renal; 6.91 µM and 16.7 µM with SW-620 colon; 6.1 µM and 16 µM with U251 CNS. In addition, the TGI is 25.1 µM and 34.7 µM in the test on 786-0 renal; 46.1 µM and 37.1 µM with ACHN renal; 35.1 µM and 40.9 µM in the test with CAKI-1 renal; 17 µM and 47.1 µM with CCRF-CEM leukemia; 31.5 µM and 27.6 µM in the test with HCT-116 colon; 10.5 µM and 47.2 µM in the test with NCI-H522 lung. Also, the TGI was 13 µM and 43.5 µM in the test on RPMI-8226 leukemia; 23.7 µM and 19.4 µM in the test with RXF 393 renal; 22.6 µM and 34.6 µM in the test on SW-620 colon; 33.4 µM and 38.2 µM in the test with U251 CNS.
Regarding `O=C(CCl)N1c2ccccc2Sc2c1ccc1ccccc21`, the GI50 in the test on 786-0 renal was 1.82 µM; in the test with ACHN renal, 1.83 µM; in the test with CAKI-1 renal, 2.05 µM; in the test on CCRF-CEM leukemia, 0.696 µM; in the test on HCT-116 colon it was 1.45 µM; in the test on NCI-H522 lung it was 1.76 µM. Further, the GI50 in the test with RPMI-8226 leukemia was 3.08 µM; with RXF 393 renal, 1.85 µM; with SW-620 colon it was 1.66 µM; in the test on U251 CNS it was 1.65 µM. The TGI was 3.27 µM in the test on 786-0 renal; 3.69 µM with ACHN renal; 5.04 µM in the test with CAKI-1 renal; 36.6 µM in the test with CCRF-CEM leukemia; 2.78 µM with HCT-116 colon; 3.46 µM in the test on NCI-H522 lung. The TGI with RPMI-8226 leukemia is 13.1 µM; in the test with RXF 393 renal, 3.43 µM; in the test on SW-620 colon it was 3.68 µM; with U251 CNS it was 3.13 µM.
Turning to `C[C@@H]1COCCN1c1cc(C2(S(C)(=N)=O)CC2)nc(-c2ccnc3[nH]ccc23)n1` (some centres undefined), the GI50 is 1.25 µM in the test on 786-0 renal; 0.592 µM in the test with ACHN renal; 2.34 µM in the test on CAKI-1 renal; 1.55 µM in the test on CCRF-CEM leukemia; 4.05 µM in the test with HCT-116 colon; 6.92 µM in the test with NCI-H522 lung. For the same compound, the GI50 was 5.73 µM in the test with RPMI-8226 leukemia, 1.46 µM with RXF 393 renal, 8.36 µM in the test on SW-620 colon and 5.46 µM in the test with U251 CNS. Besides, the TGI was 96.8 µM with 786-0 renal; 4.3 µM with ACHN renal; 25.5 µM in the test with CAKI-1 renal; over 100 µM in the test with CCRF-CEM leukemia; over 100 µM in the test with HCT-116 colon; 43.1 µM in the test with NCI-H522 lung. Also, the TGI was determined as 36.1 µM in the test with RPMI-8226 leukemia, 6.76 µM with RXF 393 renal, 95.1 µM with SW-620 colon and 63.9 µM in the test on U251 CNS.
Turning to `O=C1C(Cl)=C(Nc2cccc(O)c2)C(=O)N1c1cc(Cl)c(Cl)cc1Cl`, the GI50 is 16.7 µM in the test on 786-0 renal; 14.4 µM in the test on ACHN renal; 19.2 µM in the test with CAKI-1 renal; 0.45 µM with CCRF-CEM leukemia; 15.8 µM with HCT-116 colon; 14.3 µM in the test on NCI-H522 lung. Also, the GI50 in the test on RPMI-8226 leukemia was 14.4 µM; in the test on RXF 393 renal it was 14.9 µM; in the test with SW-620 colon it was 15.2 µM; in the test on U251 CNS, 13.7 µM. In addition, the TGI was 32.7 µM with 786-0 renal; 27.5 µM in the test on ACHN renal; 48.1 µM in the test with CAKI-1 renal; over 100 µM in the test on CCRF-CEM leukemia; 30.2 µM in the test on HCT-116 colon; 28 µM in the test on NCI-H522 lung. Moreover, the TGI in the test on RPMI-8226 leukemia amounted to 45.8 µM; in the test on RXF 393 renal, 30.6 µM; in the test on SW-620 colon, 28.9 µM; in the test on U251 CNS, 27.3 µM.
With `Nc1cc(N)c(N)cc1N`, the GI50 with 786-0 renal is 2.27 µM; in the test on ACHN renal, 1.73 µM; in the test with CAKI-1 renal, 2.55 µM; in the test with CCRF-CEM leukemia it was 3.43 µM; with HCT-116 colon, 2.01 µM; in the test with NCI-H522 lung, 1.48 µM. For the same compound, the GI50 is 3.48 µM with RPMI-8226 leukemia, 1.73 µM in the test with RXF 393 renal, 3.09 µM in the test on SW-620 colon and 1.82 µM in the test with U251 CNS. Also, the TGI was 4.99 µM in the test on 786-0 renal; 3.72 µM in the test with ACHN renal; 7.17 µM in the test with CAKI-1 renal; 27.5 µM with CCRF-CEM leukemia; 4.61 µM in the test on HCT-116 colon; 2.9 µM with NCI-H522 lung. Also, the TGI with RPMI-8226 leukemia amounted to 17.5 µM; in the test on RXF 393 renal, 3.19 µM; in the test on SW-620 colon, 12.1 µM; in the test with U251 CNS it was 3.75 µM.
Consider `CC(=O)c1cc([N+](=O)[O-])ccc1OCC(=O)O`, for which the TGI with 786-0 renal, with ACHN renal, in the test on CAKI-1 renal, in the test with CCRF-CEM leukemia, with HCT-116 colon and in the test with NCI-H522 lung was over 100 µM throughout. Moreover, the TGI in the test with RPMI-8226 leukemia, with RXF 393 renal, in the test on SW-620 colon and in the test with U251 CNS was over 100 µM each time.
With `CC(=O)O[C@@H]1CC2C(C)(C)CCCC2(C)C2=C1C(=O)C(C(C)C)=CC2=O` (some centres undefined), the GI50 with 786-0 renal is 0.781 µM; in the test with ACHN renal it was 0.644 µM; in the test with CAKI-1 renal, 1.03 µM; in the test with CCRF-CEM leukemia, 2.79 µM; in the test with HCT-116 colon, 0.467 µM; in the test with NCI-H522 lung, 1.76 µM. Also, the GI50 with RPMI-8226 leukemia is 0.948 µM; with RXF 393 renal, 0.757 µM; with SW-620 colon, 1.19 µM; in the test on U251 CNS, 2.35 µM. The TGI is 6.95 µM in the test with 786-0 renal; 1.96 µM with ACHN renal; 2.63 µM in the test with CAKI-1 renal; over 100 µM in the test on CCRF-CEM leukemia; 2.8 µM in the test on HCT-116 colon; 3.98 µM in the test with NCI-H522 lung. The TGI in the test on RPMI-8226 leukemia was 93.4 µM; with RXF 393 renal, 2.27 µM; in the test with SW-620 colon, 3.28 µM; with U251 CNS, over 100 µM.
Consider `N#CC(C(=O)C(=O)NCCCNC(=O)C(=O)C(C#N)c1ccccc1)c1ccccc1` (centres undefined), for which the TGI with 786-0 renal, in the test with ACHN renal, with CAKI-1 renal, with CCRF-CEM leukemia, with HCT-116 colon and in the test on NCI-H522 lung was over 100 µM throughout. Further, the TGI with RPMI-8226 leukemia, in the test on RXF 393 renal, in the test with SW-620 colon and in the test on U251 CNS was over 100 µM each time.
